Article PMC9100109, “UnbiasedDTI: Mitigating Real-World Bias of Drug-Target Interaction Prediction by Using Deep Ensemble-Balanced Learning” (Molecules, 2022)

molecular target: T1, ACE2: SARS-CoV-2 Spike complex (UniProt P0DTC2+Q9BYF1); experiment: biochemical; assay type: binding, human ACE2 / SARS-CoV-2 spike
T1 construct: BPS Bioscience Cat: 79936; inferred from capture on a nickel-coated plate; inferred from detection with anti-mouse Fc-HRP; purchased BPS Bioscience 79936

Row | Compound | IC50 | Lab Results | activity against the complex of the spike protein and ACE2
1 | CC(C)CN(C[C@@H](O)[C@H](Cc1ccccc1)NC(=O)O[C@H]1CO[C@H]2OCC[C@H]21)S(=O)(=O)c1ccc(N)cc1 [darunavir, Darunavir, reference compound] | 5.5 nM | P (key: P: positive (interacting); N: negative (non-interacting)) | –
2 | CC(=O)N[C@H]1[C@H]([C@H](O)[C@H](O)CO)O[C@](OP(=O)([O-])OC[C@H]2O[C@@H](n3ccc(N)nc3=O)[C@H](O)[C@@H]2O)(C(=O)O)C[C@@H]1O.[Na+] [cytidine-5-monophospho-N-acetylneuraminic acid sodium salt] | – | P (key: P: positive (interacting); N: negative (non-interacting)) | –
3 | N.O=C(O)C(=O)C[C@@H](O)[C@@H](O)[C@H](O)[C@H](O)CO [2-keto-3-deoxyoctonate ammonium salt, 2-Keto-3-deoxyoctonate ammonium salt] | – | P (key: P: positive (interacting); N: negative (non-interacting)) | –
4 | O=C(CO)N[C@H]1[C@H]([C@H](O)[C@H](O)CO)O[C@](O)(C(=O)O)C[C@@H]1O [N-Glycolylneuraminic, N-glycolylneuraminic acid] | – | P (key: P: positive (interacting); N: negative (non-interacting)) | –
5 | CC(=O)N[C@H]1[C@H]([C@H](O)[C@H](O)CO)OC(O)(C(=O)O)C[C@@H]1O (stereo partly shown) [N-acetyl-neuraminic, N-acetyl-neuraminic acid] | 19 nM | P (key: P: positive (interacting); N: negative (non-interacting)) | –
6 | CC(=O)N[C@H]1C(O)O[C@H](CO)[C@@H](O[C@@H]2O[C@H](CO)[C@H](O)[C@H](O)[C@H]2O)[C@@H]1O (stereo partly shown) [N-Acetyllactosamine] | – | P (key: P: positive (interacting); N: negative (non-interacting)) | –
7 | OC[C@H]1O[C@H](OC[C@H]2O[C@H](OC[C@H]3OC(O)[C@@H](O)[C@@H](O[C@H]4O[C@H](CO)[C@@H](O)[C@H](O)[C@@H]4O)[C@@H]3O)[C@@H](O)[C@@H](O[C@H]3O[C@H](CO)[C@@H](O)[C@H](O)[C@@H]3O)[C@@H]2O)[C@@H](O)[C@@H](O)[C@@H]1O (stereo partly drawn) [3 α ,6 α -Mannopentaose] | – | N (key: P: positive (interacting); N: negative (non-interacting)) | inactive
